Results on one compound are retold here after patent US10428030B2, “Heterocycle derivatives and their use for the treatment of CNS disorders” (Trillium Therapeutics Inc., priority 2015, dated 2019).

Assay [1] deals with hippocampal kindled rat. As to the kind of experiment: Hippocampal kindled rat model (focal seizures). It counts as in vivo. The settings on record: <300 mg/kg i.p., vs vehicle controls. An excerpt: Hippocampal Kindled Rat Test is designed to quantify the anticonvulsant effects of a test compound in the kindled rat model. Rats treated by i.p. injection.
The Kindled Rat is a model of temporal lobe epilepsy, which is the most common and drug-resistant type of adult focal epilepsy (Morimoto et al., 2004). […] This acquired hyper-responsiveness is called kindling and results not only in increased seizure responses but also in an elongation of the after-discharge duration seen on an EEC recording. Electrodes are implanted into the hippocampus of anesthetized rats, which are then allowed to recover for one week. […] At each time point, the behavioral seizure score (BSS) and after-discharge duration (ADD) is recorded. The BSS's are scored according to the following criteria (Racine, Electroencephalogr Clin Neurophysiol 1972, 32:281-94): Stage 1—mouth and facial clonus; Stage 2—stage 1 plus head nodding; Stage 3—stage 2 plus forelimb clonus; Stage 4—stage 3 plus rearing; and Stage 5—stage 4 plus repeated rearing and falling.
The afterdischarge threshold (ADT) can also be measured in the kindled rat. […] The individual rat ADT is then determined at varying times (i.e., 0.25, 1, 2, and 4 hr) after drug administration.

Assay [2] relates to male CF-1 mouse. The assay can be described thus: Mouse formalin test (pain). It counts as in vivo. The settings on record: 41 mg/kg i.p.; most pronounced in second (late) phase. The method, then:
The formalin test is performed according to the method of Tjolsen et al. Pain, 1992. 51(1). An injection of 0.5% formalin (Sigma) is made into the planter region of the right hind paw of an adult (26-30 g) male CF-1 mouse. Sub-dermal formalin injection elicits a distinct behavioral profile characterized by the mouse licking the affected paw. The behavior is characteristically biphasic in nature. For example, immediately following the injection the mouse licks the paw intensely for approximately 10 min. This is referred to as phase 1 (or, the acute phase) and is followed by a brief latent period (<5 minutes) where there is little behavioral activity. A more prolonged period of about 20-30 min of activity then ensues, which constitutes phase 2 (or, the inflammatory phase). […] The cumulative length of licking for each 2-min time period is measured. […] The area under the curve (AUG) is calculated for both the acute and inflammatory phases of the licking response for individual animals in both the test and control groups. The percent of control AUG for drug-treated animal groups is determined using the Graph-Pad Prism Version 3.03. The total AUG for each phase of the test group is also calculated and converted to percentage of total AUG of control for each phase. The average and S.E.M. for both the drug treated and control percentages are calculated and tested for significant difference.

Take `O=C1COc2cc(OCc3ccc(OC(F)F)cc3)ccc2N1` [Compound I(B)]: in assay [1], the “suppression of fully kindled (stage 5) seizures” value is “dose related suppression of fully kindled (stage 5) seizures”. Moreover, the “number of paw licks” value in assay [2] is “significant decrease in the number of paw licks”.
